# Measured values: patent US20260144252A1, “BROMINE- OR IODINE-PARA-SUBSTITUTED [(1,5-DIPHENYL-1H-1,2,4-TRIAZOL-3-YL)OXY]ACETIC ACID DERIVATIVES AND THEIR SALTS, AGENTS FOR PROTECTING USEFUL PLANTS OR CROP PLANTS COMPRISING THEM, METHODS FOR PRODUCING THEM AND THEIR USE AS SAFENERS” (Bayer Aktiengesellschaft, priority 2022, published 2026)
# What was measured:
# Format in all cases: in vivo
# [1] = test system: summer barley (HORVS, cv. Quench); assay: Reduction of damage by mesosulfuron-methyl on summer barley (greenhouse, post-emergence safener test); set-up: key: 0: no reduction in damage (appearance corresponding to the herbicide control); 1: slight reduction in damage; 2: distinct reduction in damage; 3: significant reduction in damage; 4: complete reduction in damage (appearance corresponding to the untreated control); conditions: safener 100 g/ha, mesosulfuron-methyl 40 g/ha, visual, 12-13 days after application
# Procedure: (§1) The seeds of the crop plants to be treated were laid out in soil in plastic pots (diameter ˜4 cm), covered with soil and grown in a greenhouse under good conditions for germination and growth. The trial plants were treated at the early leaf stage (BBCH10-BBCH12). In the course of this, the inventive compounds of the general formula (I) formulated in the form of wettable powders (WP) were sprayed onto the above-ground parts of the plants as an aqueous suspension with a water application rate corresponding to 800 l/ha with addition of wetting agent (Mero, 0.2%) in the specified dose. This was followed by the application of the herbicide. For this purpose, mesosulfuron-methyl, formulated in the form of water-dispersible granules (WG), was sprayed onto the above-ground parts of the plants in the form of an aqueous dispersion with a water application rate corresponding to 800 l/ha with addition of wetting agent (Biopower, 1 l/ha) in a dose of 40 g/ha. The dose of the herbicide was chosen here such that it causes average, visually clearly apparent damage (50-60%) compared to untreated crop plants at the evaluation time on a control group of crop plants without safener treatment that were included in the same trial. After application, the plants were cultivated under good growth conditions in a greenhouse. 12-13 days after application, the efficacy of the test compounds was assessed visually. For this purpose, the appearance of the plants treated with the test compound and herbicide was compared to the corresponding herbicide controls (without safener; with clearly visible damage) and the untreated controls (without damage). The damage-reducing effect of the test compounds was expressed here separately for 2 repeats in graded efficacy codes according to the following scheme: • 0: no reduction in damage (appearance corresponding to the herbicide control) • 1: slight reduction in damage • 2: distinct reduction in damage • 3: significant reduction in damage • 4: complete reduction in damage (appearance corresponding to the untreated control)
# [2] = test system: summer wheat (TRZAS, cv. Triso); assay: Reduction of damage by mesosulfuron-methyl on summer wheat (greenhouse, post-emergence safener test); set-up: key: 0: no reduction in damage (appearance corresponding to the herbicide control); 1: slight reduction in damage; 2: distinct reduction in damage; 3: significant reduction in damage; 4: complete reduction in damage (appearance corresponding to the untreated control); conditions: mesosulfuron-methyl 40 g/ha, visual, 12-13 days after application
# Procedure: as §1
# [3] = test system: winter barley (HORVW; cv. Zzoom); assay: Comparative herbicide/safener combination test, damage by mesosulfuron-methyl + iodosulfuron-methyl-sodium; conditions: safener 20 g a.i./ha, damage without safener 55%
# Procedure: (§2) The seeds of the crop plants to be treated were laid out in soil in wood fiber pots (diameter ˜7 cm), covered with soil and grown in a greenhouse under good conditions for germination and growth. The trial plants were treated at the early leaf stage (BBCH11-12). For this purpose, the herbicides and safeners used were formulated as wettable powders (WP), mixed in accordance with the dose specified in each case, and sprayed onto the above-ground parts of the plants as an aqueous suspension at a water application rate corresponding to 300 l/ha with addition of wetting agent (Biopower, 0.2%). The herbicidal effects were created using a mixture of mesosulfuron-methyl (40 g a.i./ha) and iodosulfuron-methyl-sodium (8 g a.i./ha). The total herbicide dose was chosen here such that it causes average, visually clearly apparent damage (min. 20%, max. 60%) compared to untreated crop plants at the evaluation time on a control group of crop plants without safener treatment that were included in the same trial. After application, the plants were cultivated under good growth conditions in a greenhouse. 20 days after application, the herbicide damage was assessed visually. The damage was assessed visually on a scale of 0-100% by comparison with untreated control plants, and averaged over 2 repeats per treatment.
# [4] = test system: durum wheat (TRZDU; cv. Joyau); assay: as above; conditions: safener 20 g a.i./ha, damage without safener 20%
# Procedure: as §2
# [5] = test system: summer barley (HORVS; cv. Quench); assay: as above; conditions: safener 20 g a.i./ha, damage without safener 50%
# Procedure: as §2
# [6] = mesosulfuron-methyl 40 + iodosulfuron-methyl-sodium 8 g a.i./ha, 20 days after application
SMILES,Efficacy of the safener [Efficacy Code] [1],Efficacy of the safener [Efficacy Code] ([2]; safener 100 g/ha),Efficacy of the safener [Efficacy Code] ([2]; safener 500 g/ha),Reduction in damage by safener (difference) [3],Reduction in damage by safener (in %) [3] [%],"Damage to crop plant by herbicide treatment WITH SAFENER [3, 6] [%]",Reduction in damage by safener (difference) [4],Reduction in damage by safener (in %) [4] [%],"Damage to crop plant by herbicide treatment WITH SAFENER [4, 6] [%]",Reduction in damage by safener (difference) [5],Reduction in damage by safener (in %) [5] [%],"Damage to crop plant by herbicide treatment WITH SAFENER [5, 6] [%]"
CCOC(=O)COc1nc(-c2ccc(F)cc2F)n(-c2ccc(Br)cc2F)n1 [I.41-1],3,2,2,–,–,–,–,–,–,–,–,–
COC(=O)CCOC(=O)COc1nc(-c2ccc(F)cc2F)n(-c2ccc(Br)cc2F)n1 [I.61-1],2,–,–,–,–,–,–,–,–,–,–,–
O=C(COc1nc(-c2ccc(F)cc2F)n(-c2ccc(Br)cc2F)n1)OCC1CCOC1 (centres unmarked) [I.63-1],2,–,–,–,–,–,–,–,–,–,–,–
COCCOC(=O)COc1nc(-c2ccc(F)cc2F)n(-c2ccc(Br)cc2F)n1 [I.67-1],3,2,3,45,82,10,20,100,0,50,100,0
